{"source": "paper PMC12090182", "about": "“Repurposing of the RIPK1-Selective Benzo[1,4]oxazepin-4-one Scaffold for the Development of a Type III LIMK1/2 Inhibitor” (ACS Chemical Biology, 2025)", "test_in_all_cases": "biochemical", "format_in_all_cases": "binding", "key": {"[1]": {"biological_target": "468 kinases including some pathogenic mutants (Homo sapiens, UniProt Q9BVS4)", "conditions": "RIOK2 (Entrez RIOK2), 1000 nM; read-out: Percent Control"}, "[2]": {"biological_target": "468 kinases including some pathogenic mutants (Homo sapiens, UniProt P42681)", "conditions": "TXK (Entrez TXK), 100 nM; read-out: Percent Control"}, "[3]": {"biological_target": "468 kinases including some pathogenic mutants (Homo sapiens, UniProt P10721, V559D/V654A)", "conditions": "read-out: Percent Control"}, "[4]": {"biological_target": "468 kinases including some pathogenic mutants (Homo sapiens, UniProt P21709)", "sequence (P21709 26-976, change not shown)": "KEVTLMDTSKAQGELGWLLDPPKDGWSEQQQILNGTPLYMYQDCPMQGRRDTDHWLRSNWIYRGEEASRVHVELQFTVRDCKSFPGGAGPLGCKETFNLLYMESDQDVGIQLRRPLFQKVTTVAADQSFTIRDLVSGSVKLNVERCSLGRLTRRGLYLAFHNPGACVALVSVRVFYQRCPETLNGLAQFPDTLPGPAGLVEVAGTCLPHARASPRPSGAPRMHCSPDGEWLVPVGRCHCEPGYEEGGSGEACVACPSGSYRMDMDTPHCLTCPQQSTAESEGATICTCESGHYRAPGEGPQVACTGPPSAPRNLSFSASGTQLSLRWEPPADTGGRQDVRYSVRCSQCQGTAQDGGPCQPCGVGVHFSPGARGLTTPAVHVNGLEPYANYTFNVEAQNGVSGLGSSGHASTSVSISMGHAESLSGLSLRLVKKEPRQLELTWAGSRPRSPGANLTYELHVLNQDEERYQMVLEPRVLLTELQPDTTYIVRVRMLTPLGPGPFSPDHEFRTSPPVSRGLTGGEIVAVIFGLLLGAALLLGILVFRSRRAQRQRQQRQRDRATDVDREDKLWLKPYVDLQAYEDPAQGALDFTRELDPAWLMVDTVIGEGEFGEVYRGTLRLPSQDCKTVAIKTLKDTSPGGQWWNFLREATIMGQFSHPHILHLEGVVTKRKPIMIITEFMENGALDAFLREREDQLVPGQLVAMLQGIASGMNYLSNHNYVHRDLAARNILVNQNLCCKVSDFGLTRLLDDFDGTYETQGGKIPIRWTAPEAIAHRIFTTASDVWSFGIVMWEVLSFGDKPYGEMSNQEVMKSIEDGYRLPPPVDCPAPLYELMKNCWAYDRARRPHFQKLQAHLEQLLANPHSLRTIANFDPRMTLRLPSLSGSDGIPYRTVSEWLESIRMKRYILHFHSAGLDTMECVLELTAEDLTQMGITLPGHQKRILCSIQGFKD", "conditions": "EPHA1 (Entrez EPHA1), 100 nM; read-out: Percent Control"}, "[5]": {"biological_target": "468 kinases including some pathogenic mutants (Homo sapiens, UniProt Q59H18)", "conditions": "TNNI3K (Entrez TNNI3K), 100 nM; read-out: Percent Control"}, "[6]": {"biological_target": "468 kinases including some pathogenic mutants (Homo sapiens, UniProt P36888, D835V)", "conditions": "read-out: Percent Control"}, "[7]": {"biological_target": "468 kinases including some pathogenic mutants (Homo sapiens, UniProt Q8IVH8)", "conditions": "MAP4K3 (Entrez MAP4K3), 100 nM; read-out: Percent Control"}, "[8]": {"biological_target": "468 kinases including some pathogenic mutants (Homo sapiens, UniProt O75385)", "conditions": "ULK1 (Entrez ULK1), 1000 nM; read-out: Percent Control"}, "[9]": {"biological_target": "468 kinases including some pathogenic mutants (Homo sapiens, UniProt Q9H2X6)", "conditions": "HIPK2 (Entrez HIPK2), 100 nM; read-out: Percent Control"}, "[10]": {"biological_target": "468 kinases including some pathogenic mutants (Homo sapiens, UniProt O95382)", "conditions": "ASK2 (Entrez MAP3K6), 100 nM; read-out: Percent Control"}, "[11]": {"biological_target": "468 kinases including some pathogenic mutants (Homo sapiens, UniProt Q8IW41)", "conditions": "MAPKAPK5 (Entrez MAPKAPK5), 1000 nM; read-out: Percent Control"}, "[12]": {"biological_target": "468 kinases including some pathogenic mutants (Homo sapiens, UniProt P00519, T315I)", "conditions": "read-out: Percent Control"}, "[13]": {"biological_target": "468 kinases including some pathogenic mutants (Homo sapiens, UniProt Q15349)", "sequence (Q15349 whole entry, change not shown)": "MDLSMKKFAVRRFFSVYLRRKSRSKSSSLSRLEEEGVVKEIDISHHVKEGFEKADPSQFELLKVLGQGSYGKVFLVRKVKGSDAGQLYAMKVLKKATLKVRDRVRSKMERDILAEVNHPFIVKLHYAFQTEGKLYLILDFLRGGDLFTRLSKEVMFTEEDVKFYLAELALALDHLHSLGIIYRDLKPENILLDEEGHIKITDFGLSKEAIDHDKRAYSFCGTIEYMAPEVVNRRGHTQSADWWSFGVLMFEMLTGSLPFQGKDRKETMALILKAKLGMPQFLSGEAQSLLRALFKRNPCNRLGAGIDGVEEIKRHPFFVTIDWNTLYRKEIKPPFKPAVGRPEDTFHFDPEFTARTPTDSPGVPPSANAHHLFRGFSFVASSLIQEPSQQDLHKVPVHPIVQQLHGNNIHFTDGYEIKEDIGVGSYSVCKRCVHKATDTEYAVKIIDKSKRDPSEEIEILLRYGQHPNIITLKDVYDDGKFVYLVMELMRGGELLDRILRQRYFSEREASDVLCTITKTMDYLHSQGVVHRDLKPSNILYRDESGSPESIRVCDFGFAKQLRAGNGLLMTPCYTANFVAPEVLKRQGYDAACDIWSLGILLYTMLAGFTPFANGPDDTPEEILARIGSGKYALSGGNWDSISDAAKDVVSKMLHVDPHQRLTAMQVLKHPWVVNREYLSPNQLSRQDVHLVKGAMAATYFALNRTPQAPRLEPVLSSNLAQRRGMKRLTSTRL", "conditions": "read-out: Percent Control"}, "[14]": {"biological_target": "468 kinases including some pathogenic mutants (Homo sapiens, UniProt P0C1S8)", "conditions": "WEE2 (Entrez WEE2), 100 nM; read-out: Percent Control"}, "[15]": {"biological_target": "468 kinases including some pathogenic mutants (Homo sapiens, UniProt P51956)", "sequence (P51956 whole entry, change not shown)": "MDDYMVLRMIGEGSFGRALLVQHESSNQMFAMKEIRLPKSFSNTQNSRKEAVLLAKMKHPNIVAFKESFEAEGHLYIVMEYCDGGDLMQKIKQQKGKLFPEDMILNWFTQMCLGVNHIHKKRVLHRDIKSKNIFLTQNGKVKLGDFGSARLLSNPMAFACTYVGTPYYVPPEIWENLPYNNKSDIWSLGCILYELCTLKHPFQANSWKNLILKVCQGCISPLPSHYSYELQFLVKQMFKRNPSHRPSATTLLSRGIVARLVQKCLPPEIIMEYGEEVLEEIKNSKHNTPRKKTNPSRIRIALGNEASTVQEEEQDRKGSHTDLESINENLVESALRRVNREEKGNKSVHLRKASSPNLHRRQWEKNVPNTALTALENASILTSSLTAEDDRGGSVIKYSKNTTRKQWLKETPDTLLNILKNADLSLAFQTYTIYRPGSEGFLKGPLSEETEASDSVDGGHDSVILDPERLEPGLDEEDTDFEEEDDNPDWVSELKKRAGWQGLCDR", "conditions": "NEK3 (Entrez NEK3), 100 nM; read-out: Percent Control"}, "[16]": {"biological_target": "468 kinases including some pathogenic mutants (Homo sapiens, UniProt Q9UKE5)", "conditions": "TNIK (Entrez TNIK), 100 nM; read-out: Percent Control"}, "[17]": {"biological_target": "468 kinases including some pathogenic mutants (Homo sapiens, UniProt P57078)", "conditions": "RIPK4 (Entrez RIPK4), 100 nM; read-out: Percent Control"}, "[18]": {"biological_target": "468 kinases including some pathogenic mutants (Homo sapiens, UniProt Q04759)", "conditions": "PRKCQ (Entrez PRKCQ), 100 nM; read-out: Percent Control"}, "[19]": {"biological_target": "468 kinases including some pathogenic mutants (Homo sapiens, UniProt Q9HBY8)", "conditions": "SGK2 (Entrez SGK2), 100 nM; read-out: Percent Control"}, "[20]": {"biological_target": "468 kinases including some pathogenic mutants (Homo sapiens, UniProt P15056)", "sequence (P15056 whole entry, change not shown)": "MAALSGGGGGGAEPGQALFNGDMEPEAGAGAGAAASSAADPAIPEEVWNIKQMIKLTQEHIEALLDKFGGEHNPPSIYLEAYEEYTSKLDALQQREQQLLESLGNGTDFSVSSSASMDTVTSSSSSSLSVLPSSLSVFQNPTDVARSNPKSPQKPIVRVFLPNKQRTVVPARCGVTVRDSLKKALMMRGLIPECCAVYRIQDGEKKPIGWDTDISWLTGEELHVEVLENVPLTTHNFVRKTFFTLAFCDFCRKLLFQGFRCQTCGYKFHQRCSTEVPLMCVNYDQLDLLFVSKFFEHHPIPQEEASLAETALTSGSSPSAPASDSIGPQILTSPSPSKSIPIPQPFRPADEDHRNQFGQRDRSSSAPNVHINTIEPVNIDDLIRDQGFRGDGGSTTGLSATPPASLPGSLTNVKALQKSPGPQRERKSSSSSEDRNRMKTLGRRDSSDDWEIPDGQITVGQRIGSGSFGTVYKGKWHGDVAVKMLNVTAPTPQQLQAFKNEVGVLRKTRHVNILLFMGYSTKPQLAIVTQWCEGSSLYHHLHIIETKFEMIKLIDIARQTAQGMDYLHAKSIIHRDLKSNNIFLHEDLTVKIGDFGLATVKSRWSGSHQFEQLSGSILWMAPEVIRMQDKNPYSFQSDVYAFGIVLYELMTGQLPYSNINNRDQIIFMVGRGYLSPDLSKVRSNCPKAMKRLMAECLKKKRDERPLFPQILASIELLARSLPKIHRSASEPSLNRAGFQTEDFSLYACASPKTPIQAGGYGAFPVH", "conditions": "BRAF (Entrez BRAF), 100 nM; read-out: Percent Control"}, "[21]": {"biological_target": "468 kinases including some pathogenic mutants (Homo sapiens, UniProt Q13153)", "conditions": "PAK1 (Entrez PAK1), 100 nM; read-out: Percent Control"}, "[22]": {"biological_target": "468 kinases including some pathogenic mutants (Homo sapiens, UniProt Q8IY84)", "conditions": "NIM1 (Entrez MGC42105), 1000 nM; read-out: Percent Control"}, "[23]": {"biological_target": "468 kinases including some pathogenic mutants (Homo sapiens, UniProt O00506)", "conditions": "YSK1 (Entrez STK25), 1000 nM; read-out: Percent Control"}, "[24]": {"biological_target": "468 kinases including some pathogenic mutants (Homo sapiens, UniProt Q15418)", "sequence (Q15418 whole entry, change not shown)": "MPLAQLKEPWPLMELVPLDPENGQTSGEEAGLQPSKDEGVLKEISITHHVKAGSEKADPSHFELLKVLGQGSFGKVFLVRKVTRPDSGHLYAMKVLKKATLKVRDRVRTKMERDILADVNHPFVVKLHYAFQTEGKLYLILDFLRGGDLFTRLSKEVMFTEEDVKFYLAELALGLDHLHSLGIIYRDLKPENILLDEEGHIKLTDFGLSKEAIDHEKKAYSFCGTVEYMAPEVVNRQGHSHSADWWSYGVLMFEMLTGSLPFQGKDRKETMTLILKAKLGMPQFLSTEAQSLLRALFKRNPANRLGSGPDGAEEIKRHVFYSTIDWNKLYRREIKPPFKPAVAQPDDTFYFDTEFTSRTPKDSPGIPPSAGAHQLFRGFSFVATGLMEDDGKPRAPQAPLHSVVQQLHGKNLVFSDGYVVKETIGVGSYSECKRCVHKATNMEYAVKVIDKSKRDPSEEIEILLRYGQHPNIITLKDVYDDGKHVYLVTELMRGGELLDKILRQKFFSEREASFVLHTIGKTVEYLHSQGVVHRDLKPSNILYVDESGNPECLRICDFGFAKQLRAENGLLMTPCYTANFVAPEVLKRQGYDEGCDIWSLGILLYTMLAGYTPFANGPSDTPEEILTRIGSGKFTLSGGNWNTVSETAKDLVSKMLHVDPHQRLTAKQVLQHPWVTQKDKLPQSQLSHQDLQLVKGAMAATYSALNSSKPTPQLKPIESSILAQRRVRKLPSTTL", "conditions": "1000 nM, read-out: Percent Control"}, "[25]": {"biological_target": "468 kinases including some pathogenic mutants (Homo sapiens, UniProt Q12851)", "conditions": "MAP4K2 (Entrez MAP4K2), 100 nM; read-out: Percent Control"}, "[26]": {"biological_target": "468 kinases including some pathogenic mutants (Homo sapiens, UniProt O75582)", "sequence (O75582 whole entry, change not shown)": "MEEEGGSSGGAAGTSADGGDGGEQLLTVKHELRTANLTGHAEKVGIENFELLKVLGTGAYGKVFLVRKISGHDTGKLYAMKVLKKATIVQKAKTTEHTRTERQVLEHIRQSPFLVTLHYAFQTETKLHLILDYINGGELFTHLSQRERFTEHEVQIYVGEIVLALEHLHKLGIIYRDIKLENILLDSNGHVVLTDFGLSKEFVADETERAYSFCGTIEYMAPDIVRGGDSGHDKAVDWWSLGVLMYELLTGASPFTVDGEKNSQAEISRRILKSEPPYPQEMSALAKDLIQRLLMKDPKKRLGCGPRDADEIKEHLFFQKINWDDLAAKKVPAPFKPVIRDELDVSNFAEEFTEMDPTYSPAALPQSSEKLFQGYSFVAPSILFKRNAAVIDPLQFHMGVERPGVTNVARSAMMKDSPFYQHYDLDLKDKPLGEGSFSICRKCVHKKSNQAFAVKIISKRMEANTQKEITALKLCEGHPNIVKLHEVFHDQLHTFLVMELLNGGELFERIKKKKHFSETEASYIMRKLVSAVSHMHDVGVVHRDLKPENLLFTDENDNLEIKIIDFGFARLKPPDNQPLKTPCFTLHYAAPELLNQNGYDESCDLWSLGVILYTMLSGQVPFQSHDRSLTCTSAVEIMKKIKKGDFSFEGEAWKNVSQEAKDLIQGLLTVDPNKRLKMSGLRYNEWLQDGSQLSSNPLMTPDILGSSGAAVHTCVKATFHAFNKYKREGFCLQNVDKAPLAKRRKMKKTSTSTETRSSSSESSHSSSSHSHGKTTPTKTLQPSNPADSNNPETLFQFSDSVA", "conditions": "1000 nM, read-out: Percent Control"}, "[27]": {"biological_target": "468 kinases including some pathogenic mutants (Homo sapiens, UniProt Q9NRM7)", "conditions": "LATS2 (Entrez LATS2), 100 nM; read-out: Percent Control"}, "[28]": {"biological_target": "468 kinases including some pathogenic mutants (Homo sapiens, UniProt P07947)", "sequence (P07947 whole entry, change not shown)": "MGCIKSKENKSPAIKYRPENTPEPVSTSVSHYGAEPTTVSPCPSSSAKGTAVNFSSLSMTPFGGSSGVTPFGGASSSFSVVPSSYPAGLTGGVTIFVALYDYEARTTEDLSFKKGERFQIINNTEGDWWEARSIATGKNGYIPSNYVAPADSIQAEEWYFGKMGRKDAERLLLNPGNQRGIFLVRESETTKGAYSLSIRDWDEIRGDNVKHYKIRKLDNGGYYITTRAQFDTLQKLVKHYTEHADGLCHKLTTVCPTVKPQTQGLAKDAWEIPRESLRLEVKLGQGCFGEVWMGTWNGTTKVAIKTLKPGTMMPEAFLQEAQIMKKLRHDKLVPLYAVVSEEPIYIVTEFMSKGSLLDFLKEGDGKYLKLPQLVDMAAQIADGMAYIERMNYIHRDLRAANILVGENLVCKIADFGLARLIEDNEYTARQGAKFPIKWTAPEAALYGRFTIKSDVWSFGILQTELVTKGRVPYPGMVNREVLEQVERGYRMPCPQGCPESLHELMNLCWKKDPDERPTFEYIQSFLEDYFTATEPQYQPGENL", "conditions": "YES (Entrez YES1), 100 nM; read-out: Percent Control"}}, "note": "Read-outs that look alike come from different tables or passages of the source.", "data": [{"smiles": "CN1C(=O)[C@@H](N2CCc3c(nn(Cc4ccccc4)c3C(N)=O)C2=O)COc2cc(Cl)ccc21", "note": "[Compound 10, (S)-2-benzyl-6-(8-chloro-5-methyl-4-oxo-2,3,4,5-tetrahydrobenzo[b][1,4]oxazepin-3-yl)-7-oxo-4,5,6,7-tetrahydro-2H-pyrazolo[3,4-c]pyridine-3-carboxamide]", "values": [{"measurement": "remaining activity at 1 µM", "setting": "[1]", "value": 100, "unit": "%"}, {"measurement": "remaining activity at 0.1 µM", "setting": "[2]", "value": 88, "unit": "%"}, {"measurement": "remaining activity at 0.1 µM", "setting": "[3]", "value": 82, "unit": "%"}, {"measurement": "remaining activity at 0.1 µM", "setting": "[4]", "value": 91, "unit": "%"}, {"measurement": "remaining activity at 0.1 µM", "setting": "[5]", "value": 82, "unit": "%"}, {"measurement": "remaining activity at 0.1 µM", "setting": "[6]", "value": 88, "unit": "%"}, {"measurement": "remaining activity at 0.1 µM", "setting": "[7]", "value": 83, "unit": "%"}, {"measurement": "remaining activity at 1 µM", "setting": "[8]", "value": 100, "unit": "%"}, {"measurement": "remaining activity at 0.1 µM", "setting": "[9]", "value": 78, "unit": "%"}, {"measurement": "remaining activity at 0.1 µM", "setting": "[10]", "value": 76, "unit": "%"}, {"measurement": "remaining activity at 1 µM", "setting": "[11]", "value": 100, "unit": "%"}, {"measurement": "remaining activity at 0.1 µM", "setting": "[12]", "value": 100, "unit": "%"}, {"measurement": "remaining activity at 0.1 µM", "setting": "[13]; RSK3(Kin.Dom.1-N-terminal) (Entrez RPS6KA2), 100 nM", "value": 100, "unit": "%"}, {"measurement": "remaining activity at 1 µM", "setting": "[13]; RSK3(Kin.Dom.2-C-terminal) (Entrez RPS6KA2), 1000 nM", "value": 100, "unit": "%"}, {"measurement": "remaining activity at 0.1 µM", "setting": "[14]", "value": 77, "unit": "%"}, {"measurement": "remaining activity at 0.1 µM", "setting": "[15]", "value": 100, "unit": "%"}, {"measurement": "remaining activity at 0.1 µM", "setting": "[16]", "value": 100, "unit": "%"}, {"measurement": "remaining activity at 0.1 µM", "setting": "[17]", "value": 96, "unit": "%"}, {"measurement": "remaining activity at 0.1 µM", "setting": "[18]", "value": 88, "unit": "%"}, {"measurement": "remaining activity at 0.1 µM", "setting": "[19]", "value": 75, "unit": "%"}, {"measurement": "remaining activity at 0.1 µM", "setting": "[20]", "value": 58, "unit": "%"}, {"measurement": "remaining activity at 0.1 µM", "setting": "[21]", "value": 88, "unit": "%"}, {"measurement": "remaining activity at 1 µM", "setting": "[22]", "value": 100, "unit": "%"}, {"measurement": "remaining activity at 1 µM", "setting": "[23]", "value": 100, "unit": "%"}, {"measurement": "remaining activity at 1 µM", "setting": "[24]; RSK1(Kin.Dom.1-N-terminal) (Entrez RPS6KA1)", "value": 100, "unit": "%"}, {"measurement": "remaining activity at 1 µM", "setting": "[24]; RSK1(Kin.Dom.2-C-terminal) (Entrez RPS6KA1)", "value": 100, "unit": "%"}, {"measurement": "remaining activity at 0.1 µM", "setting": "[25]", "value": 70, "unit": "%"}, {"measurement": "remaining activity at 1 µM", "setting": "[26]; RPS6KA5(Kin.Dom.1-N-terminal) (Entrez RPS6KA5)", "value": 100, "unit": "%"}, {"measurement": "remaining activity at 1 µM", "setting": "[26]; RPS6KA5(Kin.Dom.2-C-terminal) (Entrez RPS6KA5)", "value": 100, "unit": "%"}, {"measurement": "remaining activity at 0.1 µM", "setting": "[27]", "value": 68, "unit": "%"}, {"measurement": "remaining activity at 0.1 µM", "setting": "[28]", "value": 89, "unit": "%"}]}]}
